Where a SMILES comes first, the peptide text is derived from it. The star is where a group is joined. Cbz = O=C(OCc1ccccc1)*
What was measured:
Assay type in all cases: cell-based
AvBD9 [1] = assay: AvBD9 gene expression in chicken HD11 macrophage cells (real-time RT-PCR); conditions: for Induction of AvBD9 gene expression: compound alone, different concentrations; for Effect of pathway inhibitor on lactose-induced AvBD9 expression: 1 h inhibitor pretreatment, then 0.2 M lactose 24 h; for Efficacy of AvBD9 induction compared with butyrate: 24 h stimulation; for Induction of AvBD9 gene expression by sugars: 0.2 M, up to 48 h; for Synergy with butyrate in AvBD9 induction: 2 mM butyrate with 0.2 M sugar, 12 h
Description: (§1) Chicken HD11 macrophage cell line was obtained from USDA-Agricultural Research Services (ARS), and chicken HTC macrophage cell line was secured from USDA-ARS. Both HD11 and HTC macrophage cells were propagated in RPMI 1640 containing 10% fetal bovine serum (FBS), 100 μg/ml streptomycin, and 100 U/ml penicillin. Peripheral blood mononuclear cells (PBMCs) were isolated from EDTA-anticoagulated chicken blood by gradient centrifugation with Histopaque 1077 (Sigma) following manufacturer's instructions. Briefly, chicken blood was overlaid onto Histopaque 1077 (Sigma) at 1:1 ratio, and centrifuged at 400×g for 30 min. Interphase containing PBMCs was aspirated and washed 3 times with PBS at 250×g for 10 min. Cell pellet was re-suspended with RPMI 1640, supplemented with 10% FBS, 100 μg/ml streptomycin, 100 U/ml penicillin, and 20 mM HEPES. After being seeded overnight at 2×10^6/well in 6-well tissue culture plates, cells were treated with different concentrations of chemicals. For signaling studies, cells were pre-treated with different signaling agonists or inhibitors for 1 h, followed by stimulation with sodium butyrate or its structural analogs for another 24 h. Cells were then lysed in RNAzol (Molecular Research Center, Cincinnati, Ohio) for RNA extraction.
(§2) Total RNA was extracted from chicken cells and tissues using RNAzol RT (Molecular Research Center) and quantitated using Nanodrop 1000 (Nanodrop Products, Wilmington, Del.). RNA (0.3 μg) was reverse transcribed in 4-μl reactions using Maxima First Strand cDNA Synthesis Kit (Thermo Fisher Scientific, Pittsburgh, Pa.) according to the manufacturer's instructions. The cDNA was then diluted 10 times with RNase-free water prior to real-time PCR analysis of AvBD9 and GAPDH as were described previously. The primers used for AvBD9 primers were […] (SEQ ID NO: 1, forward) and […] (SEQ ID NO: 2, reverse), whereas the primers for chicken glyceraldehyde-3-phosphate dehydrogenase (GAPDH) were […] (SEQ ID NO: 3, forward) and […] (SEQ ID NO: 4, reverse). QuantiTect SYBR Green PCR Kit (Qiagen, Valencia, Calif.) was used in 10 μl reactions with 4 and 1 μl of diluted cDNA for AvBD9 and GAPDH, respectively. Real-time PCR was performed with an initial activation at 95° C. for 10 min, followed by 40 cycles at 94° C. for 15 sec, 55° C. for 20 sec and 72° C. for 30 sec. Melting curve analysis was carried out to confirm the specificity of PCR amplification. Relative fold change in the AvBD9 gene expression was calculated using the ΔΔCt method normalized against the GAPDH levels.

AvBD9 [2] = assay: AvBD9 gene expression in chicken peripheral blood mononuclear cells (PBMCs) (real-time RT-PCR); conditions: for Effect of pathway inhibitor on butyrate-induced AvBD9 expression: 1 h inhibitor pretreatment, then 2 mM sodium butyrate 24 h; for Effect on AvBD9 induction, compound alone: without butyrate; for AvBD9 gene expression, maximum fold increase, compound alone: 50 to 250 μM, dose-dependent
Description: as §1, §2

AvBD9 [3] = assay: as above; conditions: 1 h inhibitor pretreatment, then 10 μM quercetin 24 h
AvBD9 [4] = assay: AvBD9 gene expression in chicken jejunal explants (real-time RT-PCR); conditions: 2 mM butyrate and/or 0.1 M lactose, 24 h
Description: A segment of chicken jejunum was harvested from 1- to 2-week-old broiler chickens, washed thoroughly in cold PBS containing 100 μg/ml of gentamicin, 100 U/ml penicillin, and 100 μg/ml streptomycin, and then cut into a series of 0.5-cm-long segments. Jejunal segments were placed individually in 6-well plates and cultured in 4 ml RPMI 1640 containing 10% FBS, 20 mM HEPES, 100 U/ml penicillin, 100 μg/ml streptomycin, and 100 μg/ml gentamicin. […] Jejunal segments were homogenized in RNAzol RT for RNA extraction.
(§3) The cDNA was then diluted 10 times with RNase-free water prior to real-time PCR analysis of AvBD9 and GAPDH as were described previously. The primers used for AvBD9 primers were […] (SEQ ID NO: 1, forward) and […] (SEQ ID NO: 2, reverse), whereas the primers for chicken glyceraldehyde-3-phosphate dehydrogenase (GAPDH) were […] (SEQ ID NO: 3, forward) and […] (SEQ ID NO: 4, reverse). QuantiTect SYBR Green PCR Kit (Qiagen, Valencia, Calif.) was used in 10 μl reactions with 4 and 1 μl of diluted cDNA for AvBD9 and GAPDH, respectively.

acetyl-histone 4 (Ac-H4) = assay: Histone 4 acetylation in chicken HD11 cells (immunoblotting, Ac-H4); conditions: 2 mM butyrate and/or 0.2 M lactose, 6 h
Description: After stimulation with various compounds, chicken HD11 cells were washed with PBS and lysed in the RIPA lysis buffer (Santa Cruz Biotechnology, Dallas, Tex.). Protein concentration was measured by the Bradford Assay (Bio-Rad, Hercules, Calif.). For the determination of histone 4 acetylation levels, 20 μg of proteins was separated by 12.5% SDS-PAGE gel and then transferred to a PVDF membrane. After overnight blocking in the blocking buffer at 4° C., the membrane was incubated with a primary rabbit antibody against acetyl-histone 4 (Ac-H4) (Cell Signaling, #8647) in the blocking buffer for 1 h at room temperature. After three washes, the membrane was incubated with an alkaline phosphatase-conjugated goat anti-rabbit IgG antibody (Sigma-Aldrich, St. Louis, Mo.) for 45 min at room temperature. Another membrane was prepared in parallel, but incubated with a rabbit antibody against β-Actin (#A2103) to reveal a similar amount of protein loading. The signaling was visualized by incubation with the ECL reagent (Santa Cruz Biotechnology).

AvBD9 [5] = assay: AvBD9 gene expression in chicken HTC macrophage cells (real-time RT-PCR)
Description: For signaling studies, cells were pre-treated with different signaling agonists or inhibitors for 1 h, followed by stimulation with sodium butyrate or its structural analogs for another 24 h.
as §3

CN(C)c1ccc(C(=O)NCCCCCC(=O)NO)cc1 [CAY10398, reference compound]
Induction of AvBD9 gene expression (AvBD9 [1]; 24 h): dose-dependent stimulation

C[C@H]1O[C@@H](n2cnc3c(N)ncnc32)C[C@@H]1O [DDA, 2′-5′-dideoxyadenosine]
Effect of pathway inhibitor on butyrate-induced AvBD9 expression (AvBD9 [2]): strikingly strong, dose-dependent increase

CC(C)C[C@@H](C=O)NC(=O)[C@H](CC(C)C)NC(=O)[C@H](CC(C)C)NC(=O)OCc1ccccc1 [MG132] (Cbz-Leu-Leu-Leu-aldehyde)
Effect of pathway inhibitor on butyrate-induced AvBD9 expression (AvBD9 [2]): nearly complete abolishment

COc1cccc(-c2cc(=O)c3ccccc3o2)c1N [PD98059, reference compound]
Effect of pathway inhibitor on butyrate-induced AvBD9 expression (AvBD9 [2]): strong synergistic AvBD9 induction
Effect of pathway inhibitor on lactose-induced AvBD9 expression (AvBD9 [1]): synergized substantially

S=C(S)N1CCCC1 [PDTC]
Effect of pathway inhibitor on quercetin-mediated AvBD9 expression (AvBD9 [3]): did not show much effect

Nc1ccc2ncnc(NCCc3ccc(Oc4ccccc4)cc3)c2c1 [QNZ, reference compound]
Effect of pathway inhibitor on lactose-induced AvBD9 expression (AvBD9 [1]): no influence

O=C(CCCCCCC(=O)Nc1ccccc1)NO [SAHA, suberoylanilide hydroxamic acid, reference compound]
Induction of AvBD9 gene expression (AvBD9 [1]; 24 h): dose-dependent stimulation

C[S+]([O-])c1ccc(-c2nc(-c3ccncc3)c(-c3ccc(F)cc3)[nH]2)cc1 (centres unmarked) [SB203580, reference compound]
Effect of pathway inhibitor on butyrate-induced AvBD9 expression (AvBD9 [2]): substantial, but not complete reduction
Effect of pathway inhibitor on lactose-induced AvBD9 expression (AvBD9 [1]): no influence

Nc1ncnc2c1ncn2C1CCCO1 (centres unmarked) [SQ22536, reference compound]
Effect of pathway inhibitor on lactose-induced AvBD9 expression (AvBD9 [1]): no influence

CCCCCCCCCCCCCCCc1cccc(O)c1C(=O)O [anacardic acid]
Effect on AvBD9 induction, compound alone (AvBD9 [2]): modest effect

CCCC(=O)OCc1ccccc1 [benzyl butyrate, Benzyl butyrate]
Efficacy of AvBD9 induction compared with butyrate (AvBD9 [1]): comparable efficacy to butyrate
Induction of AvBD9 gene expression (AvBD9 [1]; 24 h): dose-dependently induced

CCCC(=O)[O-].[Na+] [butyrate, Sodium butyrate]
AvBD9 induction, fold (AvBD9 [4]): 100 fold
AvBD9 induction, peak fold (AvBD9 [1]; 2 mM butyrate alone, 24 h): approximately 1,750 fold
Histone 4 acetylation (acetyl-histone 4 (Ac-H4)): minimum histone 4 acetylation

CCCC(=O)Nc1ncnc2c1ncn2[C@@H]1O[C@@H]2COP(=O)(O)O[C@H]2[C@H]1OC(=O)CCC [dibutyryl cAMP, reference compound]
Efficacy of AvBD9 induction compared with butyrate (AvBD9 [1]): comparable efficacy to butyrate
Induction of AvBD9 gene expression (AvBD9 [1]; 24 h): dose-dependently induced

O=C(CO)[C@@H](O)[C@H](O)[C@H](O)CO [fructose]
Induction of AvBD9 gene expression by sugars (AvBD9 [1]): stimulated AvBD9 gene expression in a time-dependent manner

O=C[C@H](O)[C@@H](O)[C@@H](O)[C@H](O)CO [galactose]
Synergy with butyrate in AvBD9 induction (AvBD9 [1]): clear synergy
Induction of AvBD9 gene expression by sugars (AvBD9 [1]): stimulated AvBD9 gene expression in a time-dependent manner

C=C(C)[C@@H](CC=C(C)C)C[C@@]12C[C@@H](CC=C(C)C)C(C)(C)[C@@](CC=C(C)C)(C(=O)C(C(=O)c3ccc(O)c(O)c3)=C1O)C2=O [garcinol]
AvBD9 induction, peak fold increase, compound alone (AvBD9 [2]; garcinol without butyrate): approximately 7 fold

CCCC(=O)OCC(COC(=O)CCC)OC(=O)CCC [glyceryl tributyrate, Glyceryl tributyrate]
Efficacy of AvBD9 induction compared with butyrate (AvBD9 [1]): comparable efficacy to butyrate
Induction of AvBD9 gene expression (AvBD9 [1]; 24 h): dose-dependently induced

O=C(O)CCc1ccccc1 [hydrocinnamic acid, Hydrocinnamic acid]
Induction of AvBD9 gene expression (AvBD9 [1]; 24 h): dose-dependently induced

OC[C@H]1O[C@@H](O[C@H]2[C@H](O)[C@@H](O)C(O)O[C@@H]2CO)[C@H](O)[C@@H](O)[C@H]1O (some centres unmarked) [lactose]
AvBD9 induction, fold (AvBD9 [4]): 15 fold
AvBD9 induction, maximum fold (AvBD9 [1]; 0.2 M lactose alone, 6 h): 350 fold
Induction of AvBD9 gene expression by sugars (AvBD9 [1]): stimulated AvBD9 gene expression in a time-dependent manner
Histone 4 acetylation (acetyl-histone 4 (Ac-H4)): no impact

OC[C@@H](O)[C@@H](O)[C@H](O)[C@H](O)CO [mannitol]
Synergy with butyrate in AvBD9 induction (AvBD9 [1]): comparably synergy

O=C(O)c1cccnc1Nc1cccc(C(F)(F)F)c1 [niflumic acid]
AvBD9 gene expression, maximum fold increase, compound alone (AvBD9 [2]): ~14,000 fold

CS(=O)(=O)Nc1ccc([N+](=O)[O-])cc1Oc1ccccc1 [nimesulide]
AvBD9 gene expression, maximum fold increase, compound alone (AvBD9 [2]): approximately 70 fold

O=c1c(O)c(-c2ccc(O)c(O)c2)oc2cc(O)cc(O)c12 [quercetin]
Reduction of AvBD9 induction at 48 h relative to 24 h (AvBD9 [5]; 40 μM quercetin): 210 fold
AvBD9 expression, fold increase at peak (AvBD9 [5]; 40 μM quercetin, 24 h): approximately 500 fold
Concentration giving peak AvBD9 response (AvBD9 [5]; quercetin alone, 24 h): 40 µM
Induction of AvBD9 gene expression (dose dependence) (AvBD9 [5]; quercetin alone, 24 h): dose-dependent induction
AvBD9 expression, fold increase (AvBD9 [2]; 40 μM quercetin alone, 24 h): approximately 6,500 fold
Induction of AvBD9 (dose dependence) (AvBD9 [2]; quercetin alone, 24 h): dose-dependently induced

Oc1ccc(C=Cc2cc(O)cc(O)c2)cc1 [resveratrol]
Effect on AvBD9 induction, compound alone (AvBD9 [2]): modest effect

CCCC(CCC)C(=O)[O-].[Na+] [sodium valproate, reference compound]
Induction of AvBD9 gene expression (AvBD9 [1]; 24 h): dose-dependent stimulation

CCCC(=O)OC/C=C/c1ccccc1 [trans-cinnamyl butyrate]
Induction of AvBD9 gene expression (AvBD9 [1]; 24 h): dose-dependently induced

OC[C@H]1O[C@H](O[C@H]2O[C@H](CO)[C@@H](O)[C@H](O)[C@H]2O)[C@H](O)[C@@H](O)[C@@H]1O [trehalose]
Synergy with butyrate in AvBD9 induction (AvBD9 [1]): clear synergy

CC(/C=C/C(=O)NO)=C\[C@@H](C)C(=O)c1ccc(N(C)C)cc1 [trichistatin A, reference compound]
Induction of AvBD9 gene expression (AvBD9 [1]; 24 h): dose-dependent stimulation

Source: US20190054057A1, “IMMUNE BOOSTING DIETARY COMPOUNDS FOR DISEASE CONTROL AND PREVENTION” (THE BOARD OF REGENTS FOR OKLAHOMA STATE UNIVERSITY OFFICE …, priority 2016, published 2019)
